Source: publication PMC5970182, “Enabling STD-NMR fragment screening using stabilized native GPCR: A case study of adenosine receptor” (Scientific Reports, 2018)

Columns and labels:
A2AR StaR = tested on: A2AR StaR; design: method as in PMID 18664584, PMID 20624408; conditions: cited from earlier work
[1] = tested on: Non-transfected HEK293 cells; assay: cAMP assay in non-transfected HEK293 cells (negative control); format: cell-based, human; conditions: high concentrations of CGS-21680; probably endogenous A2AR
A2AR = biological target: T1, A2AR (Homo sapiens, UniProt P29274); assay: STD-NMR binding and competition on purified native A2AR
T1 construct: Full length and wild type A2AR was expressed in yeast (Pichia pastoris) and Sf9; Strep-tag II (N); 8xHis (N); made in house; host or cells: Sf9 insect cells (baculovirus)

[2] = biological target: the molecule itself; assay: SEC-MALS; peak 1 of the gel filtration of affinity-purified A2AR; Phenomenex Yarra SEC 3000-3 column, 20 °C, 0.3 ml/min; DDM/CHS micelles; dn/dc protein 0.185 ml/g, detergent 0.1618 ml/g

Molecule: CCNC(=O)[C@H]1O[C@@H](n2cnc3c(N)ncnc32)[C@H](O)[C@@H]1O [NECA]
- Binding of agonists to StaR preparation in comparison to the wild type protein (A2AR StaR): not able to bind correctly

Molecule: CCNC(=O)[C@H]1O[C@@H](n2cnc3c(N)nc(NCCc4ccc(CCC(=O)O)cc4)nc32)[C@H](O)[C@@H]1O [CGS-21680]
- Binding of agonists to StaR preparation in comparison to the wild type protein (A2AR StaR): not able to bind correctly
- cAMP production [1]: small increase in cAMP production

Molecule: Cn1c(=O)c2c(ncn2C)n(C)c1=O [caffeine, reference compound]
- STD binding signal (A2AR): bound to A2AR
- STD binding signal in competition with ZM241385 (A2AR): binding signal of caffeine disappears

B1: Wild type, full length human adenosine A2A receptor (receptor, UniProt P29274 1-412, looked up)
chain: MPIMGSSVYITVELAIAVLAILGNVLVCWAVWLNSNLQNVTNYFVVSLAAADIAVGVLAIPFAITISTGFCAACHGCLFIACFVLVLTQSSIFSLLAIAIDRYIAIRIPLRYNGLVTGTRAKGIIAICWVLSFAIGLTPMLGWNNCGQPKEGKNHSQGCGEGQVACLFEDVVPMNYMVYFNFFACVLVPLLLMLGVYLRIFLAARRQLKQMESQPLPGERARSTLQKEVHAAKSLAIIVGLFALCWLPLHIINCFTFFCPDCSHAPLWLMYLAIVLSHTNSVVNPFIYAYRIREFRQTFRKIIRSHVLRQQEPFKAAGTSARVLAAHGSDGEQVSLRLNGHPPGVWANGSAPHPERRPNGYALGLVSGGSAQESQGNTGLPDVELLSHELKGVCPEPPGLDDPLAQDGAGVS
modifications: N-glycans attached (sites not given)
notes: adenosine A2A receptor, human, full length, wild type; Peak 2 of the gel filtration also holds a faster band consistent with a degradation product; also called native A2AR
- stoichiometry N [2]: ~5
